For 6 compounds, IC50 results are on record in US6410684B1, “Serine protease inhibitors” (Akzo Nobel N.V., priority 1996, dated 2002).

The test concerns the target T1, Thrombin (Factor IIa) (Homo sapiens, UniProt P00734).
T1 construct: purchased Centraal Laboratorium voor Bloedtransfusie, Amsterdam, The Netherlands
Nature of the test: Anti-thrombin assay (hydrolysis of chromogenic substrate S-2238). The test is classed as biochemical. The settings on record: chromogenic substrate S-2238, TNP buffer, 37° C., absorbance at 405 nm. Here is the method:
Thrombin (Factor IIa) is a factor in the coagulation cascade. The anti-thrombin activity of compounds of the present invention was assessed by measuring spectrophotometrically the rate of hydrolysis of the chromogenic substrate s-2238 exterted by thrombin. This assay for anti-thrombin activity in a buffer system was used to assess the IC50-value of a test compound.
Test medium: Tromethamine-NaCl-polyethylene glycol 6000 (TNP) buffer. Reference compound: 12581 (Kabi) Vehicle: TNP buffer. Solubilisation can be assisted with dimethylsulphoxide, methanol, ethanol, acetonitrile or tert-butyl alcohol which are without adverse effects in concentrations up to 2.5% in the final reaction mixture.
Reagents*: 1. Tromethamine-NaCl (TN) buffer. Composition of the buffer: Tromethamine (Tris) 6.057 g (50 mmol), NaCl 5.844 g (100 mmol), water to 1 l. The pH of the solution is adjusted to 7.4 at 37° C. with HCl (10 mmol·l^−1). 2. TNP buffer: Polyethylene glycol 6000 is dissolved in TN buffer to give a concentration of 3 g·l^−1. 3. S-2238 solution: One vial S-2238 (25 mg; Kabi Diagnostica, Sweden) is dissolved in 20 ml TN buffer to give a concentration of 1.25 mg·ml^−1 (2 mmol·l^−1). 4. Thrombin solution: Human thrombin (16 000 nKat·vial^−1; Centraal Laboratorium voor Bloedtransfusie, Amsterdam, The Netherlands) is dissolved in TNP buffer to give a stock solution of 835 nKat·ml^−1. Immediately before use this solution is diluted with TNP buffer to give a concentration of 3.34 nKat·ml^−1.
The test and reference compounds are dissolved in Milli-Q water to give stock concentrations of 10^−2 mol·l^−1. Each concentration is stepwise diluted with the vehicle to give concentrations of 10^−3, 10^−4 and 10^−5 mol·l^−1. The dilutions, including the stock solution, are used in the assay (final concentrations in the reaction mixture: 3·10^−3; 10^−3; 3·10^−4; 10^−4; 3·10^−5; 10^−5; 3·10^−6; and 10^−6 mol·l^−1, respectively).
At room temperature 0.075 ml and 0.025 ml test compound or reference compound solutions or vehicle are alternately pipetted into the wells of a microtiter plate and these solutions are diluted with 0.115 ml and 0.0165 ml TNP buffer, respectively. An aliquot of 0.030 ml S-2238 solution is added to each well and the plate is pre-heated and pre-incubated with shaking in an incubator (Amersham) for 10 min. at 37° C. Following pre-incubation the hydrolysis of S-2238 is started by addition of 0.030 ml thrombin solution to each well. The plate is incubated (with shaking for 30 s) at 37° C. Starting after 1 min of incubation, the absorbance of each sample at 405 nm is measured every 2 min. for a period of 90 min. using a kinetic microtiter plate reader (Twinreader plus, Flow Laboratories).
All data are collected in an IBM personal computer using LOTUS-MEASURE. For each compound concentration (expressed in mol·l^−1 reaction mixture) and for the blank the absorbance is plotted versus the reaction time in min.
Evaluation of responses: For each final concentration the maximum absorbance was calculated from the assay plot. The IC50-value (final concentration, expressed in μmol·l^−1, causing 50% inhibition of the maximum absorbance of the blank) was calculated using the logit transformation analysis according to Hafner et al. (Arzneim.-Forsch./Drug Res. 1977; 27(II): 1871-3).

A word on the IC50: it is the midpoint of a concentration-inhibition curve. A lower IC50 goes with higher potency. Regarding `NCC#CCC(NC(=O)C1CCCN1C(=O)C1NCCC2CCCCC21)C(=O)c1nccs1` (stereo not drawn) [Example 27], the IC50 was 4.64 µM.

The compound `NCCCCC(NC(=O)[C@@H]1CCCN1C(=O)[C@@H](Cc1ccc(Cl)cc1)NCC(=O)O)C(=O)c1nccs1` (stereo partly drawn) [Example 30, HOOC—CH2-D-p-Cl-Phe-Pro-Lysininyl-(2-thiazolyl)] registered an IC50 of 5.1 µM.

On to `NCC#CCC(NC(=O)C1CCCN1C(=O)C(Cc1ccccc1)NCC(=O)O)C(=O)C(=O)O` [Example 11, HOOC—CH2-D-Phe-Pro-LysininylΨ[COCO]—OH], for which the IC50 amounted to 5 µM. The figure for `NCC#CCC(NC(=O)C1CCCN1C(=O)C(CC1CCCCC1)NCC(=O)O)C(=O)c1nccs1` (stereo not drawn) [Example 1] is 0.56 µM. `NCC#CCC(NC(=O)C1CCCN1C(=O)C(CC1CCCCC1)NCC(=O)O)C(=O)C(=O)N1CCC1` (stereo not drawn) [Example 15] returned an IC50 of 0.7 µM. The compound `CNC(CC1CCCCC1)C(=O)N1CCCC1C(=O)NC(CC#CCN)C(=O)C(=O)O` [Example 3, N-Me-D-Cha-Pro-LysininylΨ[COCO]—OH] yielded an IC50 of 4.3 µM.
